The GI50 is the concentration at which growth is held to half of that of the control.

The values that follow come from patent US20240252668A1, “ANTIBODY DRUG CONJUGATES AND METHODS FOR MAKING THEREOF” (Novartis AG, priority 2021, published 2024).

The subject of series [1] is A375 skin melanoma cell line (homozygous BRAF V600E). Description: Cell proliferation assay (resazurin cell viability), A375 cell line. The format is cell-based. The gist of the method:
(§1)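 Cells seeded the night before, then treated 96 h at 37 °C in RPMI/10% FCS (A375 in DMEM/10% FCS); compounds 260 nM to 0.036 nM in ⅓ dilution steps, one compound 10000 nM to 1.52 nM. Viability read by resazurin addition after 96 h.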

Another series relates to MDCK-LE monolayers. Nature of the series: Cell-based transwell assay with MDCK-low efflux monolayers (passive permeability). The format is in vitro ADME. How it is done: Cell-based transwell assays with MDCK-low efflux monolayers: Compounds (A1) and 2-15 were tested in MDCK cell sub-clones with low effluxt ransporter activity (MDCK-LE) in order to determine their passive permeability. The incubations were performed at a contract research organization as described previously.

The subject of series [2] is SK-MEL-30 skin melanoma cell line (heterozygous NRAS Q61K). Nature of the series: Cell proliferation assay (resazurin cell viability), SK-MEL-30 cell line. It counts as cell-based. The gist of the method: as §1
The nature of series [3]: EPSA determination by supercritical fluid chromatography. It counts as physicochemical. The gist of the method:
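SFC on a Chirex 3014 column ([…], 3×100 mm, 100 Å). Gradient runs linearly from 5% to 60% methanol containing 20 mM ammonium formate, in scCO2, over 4.5 min.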

Series [4] relates to MP41 uveal melanoma cell line (heterozygous GNA11 Q209L). Description: Cell proliferation assay (resazurin cell viability), MP41 cell line. The format is cell-based. The gist of the method:
as §1
A general note: Resazurin is reduced to fluorescent resorufin, in cell work by metabolically active cells.

The test system of series [5] is 92.1 and MP41 cell lines (GNAQ/GNA11 mutant uveal melanoma). Nature of the series: Cell proliferation assays, potency ranking over both uveal melanoma lines. It counts as cell-based. To be noted: 92.1 and MP41 cell lines. From the text: The selective antiproliferative profile of the chromodepsins against GNAQ/GNA11 mutant cell lines is confirmed by the lack of activity against the A375 and SK MEL 30 cell lines that are independent from GNAQ/GNA11 signaling. The potency ranking using the 92.1 and MP41 cell lines is in good agreement with the previously SAR studies. […] These findings are in line with a recent report from Voss et al., highlighting the importance of the “lipophilic anchors” of compound (A1) at the residues varied in compounds 2 and 3, in context of binding kinetics and prolonged residence time on the target proteins. The retained potency of compound 4 indicates a promising exit vector for potential synthetic or biosynthetic modifications of the scaffold. […] The linearized depsipeptides compounds 5-7 lack any antiproliferative activity. In this experimental setup, the cellular permeability of the compounds was a crucial factor contributing to the observed antiproliferative potency. Therefore, all compounds were characterized in a low efflux MCDK assay and determined their exposed polar surface areas (EPSA) in order to assess their passive cellular permeabilities. All macrocyclic chromodepsins that feature the N acyl Hle side chain show similar results concerning their % fraction absorbed (% FA; average ˜60% FA+20%) and EPSA values.
Cell Proliferation Assays with Chromodepsins (compounds (A1) and 2-15): Cell line descriptions: 92.1—uveal melanoma cell line, derived from primary tumor, harboring heterozygous GNAQ Q209L mutation. Purchased from Sigma Aldrich. MP41 (CRL-3297) -uveal melanoma cell line, derived from primary tumor, harboring heterozygous GNA11 Q209L mutation. Purchased from ATCC. A375—skin melanoma cell line, harboring homozygous BRAF V600E mutation. Origin: Cancer Cell Line Encyclopedia (CCLE). SK-MEL-30—skin melanoma cell line, harboring heterozygous NRAS Q61K mutation. Origin: CCLE.
Cells were cultured in 96-well plates in a total volume of 100 μL at 37° C., 5% CO2 and 95% relative humidity. All cell lines were cultured in RPMI Medium (RPMI 1640 w/o L-glutamine, Bioconcept ref. 1-41F01-I) except A375, DMEM medium (DMEM high glucose (4.5 g/L), Bioconcept, ref. 1-26F01-I), and supplemented with 10% FCS (Bioconcept, ref. 2-01F30-I). Two to three thousand cells were seeded in 96-well plates per well the night before they were treated with compounds (concentration range: from 260 nM to 0.036 nM with ⅓ dilution steps; for 7 the concentration range was increased from 10000 nM to 1.52 nM with ⅓ dilution steps). Cell viability was measured by addition of 10 ul of resazurin per well after 96 hours of treatment. Results were analyzed and plotted using GraphPad Prism 9.0.1.

In series [6] the test system is 92.1 uveal melanoma cell line (heterozygous GNAQ Q209L). Nature of the series: Cell proliferation assay (resazurin cell viability), 92.1 cell line. The format is cell-based. An outline of the steps:
as §1

For the next series, the system named is Gαq proteins. To be noted: as has been reported; dynamic mass redistribution; cited from earlier work.
Setting [7] is: versus macrocyclic chromodepsins with N-acyl-Hle side chain.

Each structure is given as a SMILES string. Where two headings read alike, the source gives them in different places. Starred links: 1 amine or outer side, 2 acyl side, 3 side chain; linkers in the order of their positions; H or OH if unused. Positions of bridges follow the written chain, without caps; N, C: chain ends. Non-standard residues stand in square brackets, D forms with d. Residues, ends and D or L forms follow the SMILES beside them. ξ: configuration not given here. X3 = CC(C)C(O[*:3])C(N[*:1])C(=O)[*:2]; ξLeu(3ξ-OH) = CC(C)C(O)C(N)C(=O)O; PhLac = O=C(O)[CH](O)Cc1ccccc1; NMeT = CN[CH](C(=O)O)[CH](C)O; NMeA = CN[CH](C)C(=O)O; NMeDha = C=C(NC)C(=O)O

Turning to `C=C1C(=O)NC(C)C(=O)N(C)C(C)C(=O)NC(C(O)C(C)C)C(=O)N(C)C(C(C)OC)C(=O)OC(C(C)C)C(NC(C)=O)C(=O)OC(Cc2ccccc2)C(=O)N1C` (stereo not drawn) [Compound 12] (Ac-[X3][PhLac][NMeDha]A[NMeA][ξLeu(3ξ-OH)][NMeT](Me); ester 1-C; configuration not given here), the concentration for 50% growth inhibition (GI50) in series [1] (A375 (GNAQ/11 wild type), 96 hours of treatment, read-out: GI50 by cell line, A375) was greater than 10 µM; in series [1] (A375 cell line, average of Rep. 1 and 2, read-out: GI50 A375 Average), greater than 10 µM; in series [1] (A375 cell line, replicate 1, read-out: GI50 A375 Rep. 1) it was greater than 10 µM; in series [1] (A375 cell line, replicate 2, read-out: GI50 A375 Rep. 2), greater than 10 µM; in series [2] (SK-MEL-30 (GNAQ/11 wild type), 96 hours of treatment, read-out: GI50 by cell line, SK-MEL-30) it was greater than 10 µM; in series [2] (SK-MEL-30 cell line, average of Rep. 1 and 2, read-out: GI50 SK-MEL-30 Average), greater than 10 µM. The GI50 was greater than 10 µM in series [2] (SK-MEL-30 cell line, replicate 1, read-out: GI50 SK-MEL-30 Rep. 1); greater than 10 µM in series [2] (SK-MEL-30 cell line, replicate 2, read-out: GI50 SK-MEL-30 Rep. 2); 1.18 µM in series [4] (MP41 (GNA11 Q209L), 96 hours of treatment, read-out: GI50 by cell line, MP41); 1.18 µM in series [4] (MP41 cell line, average of Rep. 1 and 2, read-out: GI50 MP41 Average); 0.994 µM in series [4] (MP41 cell line, replicate 1, read-out: GI50 MP41 Rep. 1); 1.35 µM in series [4] (MP41 cell line, replicate 2, read-out: GI50 MP41 Rep. 2). In addition, the GI50 in series [6] (92.1 (GNAQ Q209L), 96 hours of treatment, read-out: GI50 by cell line, 92.1) turned out to be 1.74 µM; in series [6] (92.1 cell line, average of Rep. 1 and 2, read-out: GI50 92.1 Average), 1.74 µM; in series [6] (92.1 cell line, replicate 1, read-out: GI50 92.1 Rep. 1), 1.13 µM; in series [6] (92.1 cell line, replicate 2, read-out: GI50 92.1 Rep. 2), 2.35 µM. Also, in the series with MDCK-LE monolayers (MDCK-LE monolayers), the “% Fraction absorbed” value worked out at 9.9%. For the same compound, in the series on MDCK-LE monolayers (MDCK-LE monolayers), the “% Recovery” value is given as 83%. Further, in the series with MDCK-LE monolayers (MDCK-LE monolayers), the “Papp A − B” value turned out to be 0.55 ×10⁻⁶ cm/s. Also, the “reduction in % FA” value in the series with MDCK-LE monolayers (setting [7]) was roughly 5 fold. Besides, the EPSA in series [3] (modified EPSA method, SFC) was 106 A^2. In addition, in series [3] (setting [7]), the “change in EPSA (in words)” value was “slight changes”. For the same compound, the “loss of potency compared to compound (A1) (growth inhibition)” value in series [5] is recorded as greater than 3.000 fold. Further, in the series on Gαq proteins, the “fold change compared to compound (A1), inhibition of Gαq proteins” value is listed as 16 fold.
